The subject of experiment [1] is muscle gastrocnemius of old mice. The experiment can be described thus: Muscle biological age by DNA methylation, pan tissue clock, in old mice. Type of experiment: in vivo, mouse. The source says: (§1) All animal experiments comply with the International Guiding Principles for Biomedical Research Involving Animals developed by the Council for International Organizations of Medical Sciences and the following guidelines for animal welfare. 24 old mice aged 18 months and 12 young mice aged 6 months were kept in a temperature-and humidity-controlled environment with a 12:12-h light-dark cycle. Mice had access to nesting and enrichment materials and were provided with ad libitum access to water and food.
(§2) Old mice were split in two groups and received either 20 mg/kg body weight of thymol or vehicle by gavage daily for 12 weeks, whereas young mice received the vehicle only (n=12). Animals found dead or euthanized at the humane endpoint for pain or physical distress, have been excluded from the analysis. At the end of the treatment, mice were euthanized with isoflurane after 2-hours fasting. Muscle gastrocnemius has been dissected samples and snap frozen in liquid nitrogen and stored at −80° C.
(§3) DNA extraction was performed on 100 mg of muscle using QIAGEN DNeasy Blood and Tissue kit (Cat. No: 69506) and following manufacturer recommendations. DNA was quantified using the DropSense technology (from Unchained Labs). […]
(§4) To calculate biological age, raw data have been analysed using algorithms (clocks) developed by the Clock Foundation. […] Data were plotted and analysed using GraphPad Prism 9. […]

Experiment [2] shares this test system. As to the kind of experiment: Muscle biological age by DNA methylation, intervention muscle clock, in old mice. Type of experiment: in vivo, mouse. To be noted: 20 mg/kg/day for 12 weeks.
Text: as §1, §2, §3, §4

Each structure is given as a SMILES string.

`Cc1ccc(C(C)C)c(O)c1` [thymol]: the “reduction of muscle biological age measured with the pan tissue clock” value in experiment [1] (20 mg/kg/day by gavage daily for 12 weeks, vs old vehicle) was found to be 20.3%. The “effect on biological age in old mice” value in experiment [1] (20 mg/kg/day for 12 weeks) was “significantly reduced biological age in old mice”. In addition, the “effects on biological age using the interventions muscle clock” value in experiment [2] was “confirmed”.

The values above are taken from patent US20260124158A1, “COMPOSITIONS AND METHODS TO REDUCE BIOLOGICAL AGE OF AN ADULT ANIMAL” (Société des Produits Nestlé S.A., priority 2022, published 2026).
